{
  "source": "patent US7923578B2",
  "about": "“Method of manufacturing 3-(4-hydroxyphenyl)propanoic acid amide, its application in the manufacture of anti-aging compositions and anti-aging composition” (Instytut Chemii Bioorganicznej Pan, priority 2005, dated 2011)",
  "key": {"SNF25 p 44 cells": {"tested_on": "SNF25 p 44 cells", "test": "JC-1 staining of mitochondrial potential by fluorescence microscopy", "format": "cell-based, human", "conditions": "pre-treatment for 3 days, all doses", "description": "FIG. 3 presents the localization of JC-1 in SNF25 p44 cells using phloretamide by fluorescence microscopy.\nLocalization of JC-1 in SNF25 p 44 cells using phloretamide by fluorescence microscopy is shown on FIG. 3.\nStaining for JC-1 was performed after phloretamide pre-treatment on dermal fibroblasts for a period of 3 days to see the mitochondrial potential."}, "[1]": {"tested_on": "Fibroblast cells (SF25 p29)", "test": "Lysosomal activity (Neutral Red Uptake assay)", "format": "cell-based, human", "description": "(§1) Test solution preparation: Stock solutions of 8 mM for the 3-p-hydroxyphenyl-propanoic acid amide were prepared by dissolving about 30 mg/ml in Hank's buffer to a final volume of 30 ml. In brief, the stock solutions were filter sterilized, stored at 4° C., and were used for experiments at their appropriate dilutions in cell culture media as required. Cell culture: All experiments were performed on mid- and late passage cultures of normal human adult skin fibroblast line, designated Senetek SNF25 (40-75% life span completed). In order to check the effects of test compounds on senescent cells, late passage cells with about 75% lifespan completed were used. SNF25 cell line was established from a mammary skin biopsy obtained from a young, non-smoking and healthy […] at the time of breast reduction operation. Normal culture conditions of medium (DMEM) containing antibiotics, 10% fetal calf serum, and incubation at 37° C., 5% CO2 with 95% humidity were used. The effects of the test chemicals were determined in the following conditions: Growth characteristics: Short-term growth experiments were performed using 24-well tissue culture plates (growth area 1.9 cm^2) and flat bottom 96 well plates (growth area 0.328 cm^2). Freshly prepared cell suspensions from mass cultures of SNF25 cells maintained in the lab were used. About 10,000 cells/well were seeded into 6 sets of 24-well plates. The cells were either allowed to attach and stabilize for 24 hours in normal culture medium or were directly added to the culture medium of a final concentration (range 40 μM to 500 μM). Culture medium was changed with the addition of test chemicals weekly. The numbers of cells were counted after different days of treatment in 2 wells from each concentration of the test chemical, by following the normal method of cell trypsinization and counting using a Coulter Counter. The third well in each category was fixed with cold methanol and stained with Giemsa stain for permanent record and for photography. The experiment was carried on until the cultures became fully confluent and no further growth was possible. Cell survival, toxicity and JC-1 staining: Cell survival after exposure to various doses was measured with the 3-(4,5 dimethylthiazol-2-yl)-2,5-diphenyltetrazolium bromide (MTT) assay. About 5,000 cells were seeded per well in a 96-well plate for 24 hours before the experiment. Cells were then treated with various doses of the compound to be tested. The wells were washed in Hank's and new medium was added. […] The absorbance was measured at 595 nm. […] The cultures were visually examined after 72 hours, and the number of viable cells and/or the total cell protein content determined, after 72 hours exposure, by the Neutral Red Uptake method. […]"}, "[2]": {"tested_on": "human skin fibroblasts (SNF25 p 23)", "test": "Short-term growth (one step growth curve, Coulter counting, Giemsa morphology)", "format": "cell-based", "description": "Test solution preparation: Stock solutions of 8 mM for the 3-p-hydroxyphenyl-propanoic acid amide were prepared by dissolving about 30 mg/ml in Hank's buffer to a final volume of 30 ml. In brief, the stock solutions were filter sterilized, stored at 4° C., and were used for experiments at their appropriate dilutions in cell culture media as required. Cell culture: All experiments were performed on mid- and late passage cultures of normal human adult skin fibroblast line, designated Senetek SNF25 (40-75% life span completed). In order to check the effects of test compounds on senescent cells, late passage cells with about 75% lifespan completed were used. SNF25 cell line was established from a mammary skin biopsy obtained from a young, non-smoking and healthy […] at the time of breast reduction operation. Normal culture conditions of medium (DMEM) containing antibiotics, 10% fetal calf serum, and incubation at 37° C., 5% CO2 with 95% humidity were used. The effects of the test chemicals were determined in the following conditions: Growth characteristics: Short-term growth experiments were performed using 24-well tissue culture plates (growth area 1.9 cm^2) and flat bottom 96 well plates (growth area 0.328 cm^2). Freshly prepared cell suspensions from mass cultures of SNF25 cells maintained in the lab were used. About 10,000 cells/well were seeded into 6 sets of 24-well plates. The cells were either allowed to attach and stabilize for 24 hours in normal culture medium or were directly added to the culture medium of a final concentration (range 40 μM to 500 μM). Culture medium was changed with the addition of test chemicals weekly. The numbers of cells were counted after different days of treatment in 2 wells from each concentration of the test chemical, by following the normal method of cell trypsinization and counting using a Coulter Counter. The third well in each category was fixed with cold methanol and stained with Giemsa stain for permanent record and for photography. The experiment was carried on until the cultures became fully confluent and no further growth was possible. Cell survival, toxicity and JC-1 staining: Cell survival after exposure to various doses was measured with the 3-(4,5 dimethylthiazol-2-yl)-2,5-diphenyltetrazolium bromide (MTT) assay. About 5,000 cells were seeded per well in a 96-well plate for 24 hours before the experiment. Cells were then treated with various doses of the compound to be tested. The wells were washed in Hank's and new medium was added. After three days, MTT (Sigma, M2128) was added at 0.5 mg/ml in medium. After 4 h, MTT was removed and isopropanol and HCl were added to dissolve the MTT crystals for 12-16 h. The absorbance was measured at 595 nm. Lysosomal activity: Neutral Red is preferentially taken up into the lysosomes of the cell. Fibroblast cells were maintained in culture and exposed to test compounds over a range of concentrations. The cultures were visually examined after 72 hours, and the number of viable cells and/or the total cell protein content determined, after 72 hours exposure, by the Neutral Red Uptake method. Individual wells of a 96-well tissue culture microtiter plate were inoculated with 0.2 ml of the appropriate media containing cells (usually 3×10^3 cells). After 1 day of incubation, the media were removed and replaced with unamended (control) medium or with medium amended with varied concentrations of the compound to be tested. […]"}, "[3]": {"tested_on": "middle aged dermal fibroblasts", "test": "Mitochondrial activity / cell survival (MTT assay)", "format": "cell-based, human", "description": "Test solution preparation: Stock solutions of 8 mM for the 3-p-hydroxyphenyl-propanoic acid amide were prepared by dissolving about 30 mg/ml in Hank's buffer to a final volume of 30 ml. In brief, the stock solutions were filter sterilized, stored at 4° C., and were used for experiments at their appropriate dilutions in cell culture media as required. Cell culture: All experiments were performed on mid- and late passage cultures of normal human adult skin fibroblast line, designated Senetek SNF25 (40-75% life span completed). In order to check the effects of test compounds on senescent cells, late passage cells with about 75% lifespan completed were used. […] The effects of the test chemicals were determined in the following conditions: Growth characteristics: Short-term growth experiments were performed using 24-well tissue culture plates (growth area 1.9 cm^2) and flat bottom 96 well plates (growth area 0.328 cm^2). […] The numbers of cells were counted after different days of treatment in 2 wells from each concentration of the test chemical, by following the normal method of cell trypsinization and counting using a Coulter Counter. […] Cell survival, toxicity and JC-1 staining: Cell survival after exposure to various doses was measured with the 3-(4,5 dimethylthiazol-2-yl)-2,5-diphenyltetrazolium bromide (MTT) assay. […] The absorbance was measured at 595 nm. […]"}, "fibroblasts": {"tested_on": "fibroblasts", "test": "Induction of cell proliferation (DNA synthesis, BrdU incorporation)", "format": "cell-based, human", "conditions": "pre-treated fibroblasts"}, "[4]": {"tested_on": "Late passage human skin fibroblasts", "test": "Cytoskeletal organization and morphology of late passage cells", "format": "cell-based", "description": "as §1, with “The cells were either allowed to attach and stabilize for 24 hours in normal culture medium or were directly added to the culture medium of a final concentration (range 40 μM to 500 μM). Culture medium was changed with the addition of test chemicals weekly.” left out, “The third well in each category was fixed with cold methanol and stained with Giemsa stain for permanent record and for photography. The experiment was carried on until the cultures became fully confluent and no further growth was possible.” left out, “assay.” for “assay. About 5,000 cells were seeded per well in a 96-well plate for 24 hours before the experiment. Cells were then treated with various doses of the compound to be tested. The wells were washed in Hank's and new medium was added.”"}, "[5]": {"tested_on": "human dermal fibroblasts (SNF25)", "test": "Cell attachment of human skin fibroblasts", "format": "cell-based", "description": "as §1, with “The cells were either allowed to attach and stabilize for 24 hours in normal culture medium or were directly added to the culture medium of a final concentration (range 40 μM to 500 μM). Culture medium was changed with the addition of test chemicals weekly.” left out, “The third well in each category was fixed with cold methanol and stained with Giemsa stain for permanent record and for photography. The experiment was carried on until the cultures became fully confluent and no further growth was possible.” left out, “assay.” for “assay. About 5,000 cells were seeded per well in a 96-well plate for 24 hours before the experiment. Cells were then treated with various doses of the compound to be tested. The wells were washed in Hank's and new medium was added.”"}, "late passage cells": {"tested_on": "late passage cells", "test": "Cell survival of late passage (senescent) cells, Coulter counting", "format": "cell-based, human", "description": "Effects on late passage cells—Cytoskeletal organization: Late passage cells with more than 75% lifespan were treated with different doses of phloretamide in order to see if this treatment could revert any of the age related changes. […] Effect of 3-p-hydroxyphenyl-propionic acid amide on the morphology of late passage cells after 7 and 14 days—Morphology of senescent cells: Late passage human skin fibroblasts (about 75% life span completed) were treated with various doses of phloretamide to see whether this treatment could reverse age-related alterations in their morphology. […] Heterogeneous behavior was not observed in the cells. […] Cell survival: Equal numbers of senescent cells were seeded in separate flasks and were treated with different concentrations of phloretamide. Cell numbers were determined by using a Coulter counter after trypsinization and resuspension of cells after 7 and 14 days of treatment."}},
  "note": "Several values for one entry are separate records, joined by “and”; a condition that tells them apart may be missing. Equal values may be shown once.",
  "data": [
    {"smiles": "NC(=O)CCc1ccc(O)cc1", "note": "[phloretamide, 3-(4-hydroxyphenyl)propanoic acid amide]", "values": [
      {"measurement": "JC-1 staining (mitochondrial potential)", "setting": "SNF25 p 44 cells", "result": "polarized mitochondria"},
      {"measurement": "JC-1 staining (mitochondrial potential)", "setting": "SNF25 p 44 cells; listed as 3-p-hydroxyphenyl-propionic acid amide", "result": "Punctate orange-red fluorescent staining was observed"},
      {"measurement": "staining pattern of the cells (lysosomal staining)", "setting": "[1]; 40 μM and 80 μM, FIG. 4", "result": "showed autophagy"},
      {"measurement": "decrease in the lysosomal autophagy", "setting": "[1]; dose range of 40 μM and 80 μM", "result": "15-40%"},
      {"measurement": "lysosomal rate compared to the untreated", "setting": "[1]; up to 200 μM, 72 hours exposure", "result": "decreased in a dose dependent manner"},
      {"measurement": "lysosomal activity", "setting": "[1]; upwards of 40 μM", "result": "decrease in lysosomal activity was observed"},
      {"measurement": "inhibition at 500 µM", "setting": "[2]; Homo sapiens, Skin fibroblast, 264 h, higher concentrations (500 μM), 11 days, read-out: inhibition of cellular growth", "result": "> 50", "unit": "%"},
      {"measurement": "increase in cell numbers", "setting": "[2]; after 11 days of treatment, 40 μM to 200 μM", "result": "10-20%"},
      {"measurement": "doses at which cytotoxicity of cells was seen", "setting": "[2]; after 11 days of treatment, morphology", "result": "greater than 200 μM"},
      {"measurement": "stimulation of cell growth", "setting": "[2]; at 40 μM and 80 μM, one step growth curve, up to 11 days", "result": "stimulation of cell growth"},
      {"measurement": "appearance (morphology) of cells", "setting": "[2]; at higher doses, after 11 days of treatment (FIG. 2 E)", "result": "larger, irregularly arranged and sparse"},
      {"measurement": "effects on the activity of mitochondria", "setting": "[3]; until a dose of 500 μM, 3 days, MTT", "result": "no negative effects"},
      {"measurement": "induction of cell growth", "setting": "[3]; within the tested range of doses (0, 01 μM-500 μM)", "result": "no induction of cell growth"},
      {"measurement": "DNA synthesis in comparison to the controls", "setting": "fibroblasts", "result": "no significant differences"},
      {"measurement": "improvement in the late passage cells", "setting": "[4]; after 14 days of treatment", "result": "couldn't find an improvement"},
      {"measurement": "appearance (morphology) of late passage cells", "setting": "[4]; after seven and fourteen days of treatment, about 75% life span completed", "result": "subtle differences"},
      {"measurement": "actin staining pattern, treated versus untreated cells", "setting": "[4]; middle-aged cells after 3 days", "result": "no obvious differences"},
      {"measurement": "percentage of cells attached to the surface of the culture flask", "setting": "[5]; after six hours of treatment, 40 11 M to 2 mM", "result": "not affected to any significant extent"},
      {"measurement": "improved / enhanced cell attachment", "setting": "[5]; at 40 μM and 80 μM", "result": "20-30% and 10-20%"},
      {"measurement": "immediate toxicity to human dermal fibroblasts", "setting": "[5]; six hours of treatment", "result": "not immediately toxic"},
      {"measurement": "numbers of surviving late passage cells", "setting": "late passage cells; after one and two weeks", "result": "almost similar without much difference"},
      {"measurement": "cell growth of late passage cells", "setting": "late passage cells; at higher doses, after 7 and 14 of treatment", "result": "dose dependent reduction"}
    ]}
  ]
}
